# Data published in patent US11806393B2, “Flavivirus peptide sequences, epitopes, and methods and uses thereof” (priority 2017, dated 2023).
# Legend:
# Type in all cases: cell-based, mouse
# CD8+ T cells [1] = assay: IFNγ ELISPOT, ZIKV-infected Ifnar-/- HLA-A*0101 transgenic mice; settings: HLA-A*0101 mice; for SFC/10^6 CD8+ T cells, MR766: 7 days after ZIKV MR766; for SFC/10^6 CD8+ T cells, FSS13025: 7 days after ZIKV FSS13025
# Method: Two ZIKV strains, MR766 (Uganda, 1947) and FSS13025 (Cambodia, 2010), were obtained from the World Reference Center for Emerging Viruses and Arboviruses (WRCEVA). The mouse-adapted DENV2 strain S221 is a triple-plaque purified clone derived from DENV2 D2S1038. Both ZIKV and DENV2 were amplified in C6/36 mosquito cells, and viral titers were measured using baby hamster kidney (BHK)-21 cell-based focus forming assay (FFA). For epitope screening, 5-week old mice (female or male) were infected retro-orbitally (R.O.) with either 1×102 FFU of ZIKV FSS13025 or ZIKV MR766, or 2×10^4 FFU of DENV2 S221 in 200 μl 10% FBS/PBS. Seven days after infection, CD8^+ T cells were isolated from splenocytes and used for ELISPOT assay, while the splenocytes were directly used for ICS assay. Additionally, 5-week old mice were inoculated I.P. with 2×10^3 FFU of DENV2 S221 for 4 weeks.
# CD8^+ T cells were isolated from splenocytes using magnetic bead positive selection (Miltenyi Biotec, Germany) 7 days after virus infection. 2×10^5 CD8^+ T cells were stimulated with 1×10^5 LPS-blasts loaded with 10 μg of individual peptide in 96-well flat-bottom plates (IMMOBILON™-P; Millipore, Bedford, Mass.) that were coated with anti-IFNγ mAb (clone AN18; Mabtech, Stockholm, Sweden) in triplicate. Concanavalin A (ConA) was used as positive control. After 20 hours of incubation, biotinylated anti-mouse IFNγ mAb (R4-6A2; Mabtech), followed by ABC peroxidase (Vector Laboratories, Burlingame, Calif., USA) and then 3-amino-9-ethylcarbazole (Sigma-Aldrich, St. Louis, Mo., USA) were added into the wells. […] A peptide inducing a magnitude of >500 SFCs/10^6 CD8^+ T cells was considered as an immunodominant peptide.
# The following results are with respect to FIG. 9, where IFNγ ELISPOT was performed using CD8+ T cells isolated from Ifnar^−/− HLA-B*0702 transgenic mice (a and b) and Ifnar^−/− HLA-A*0101 transgenic mice (d and e) 7 days after retro-orbital (R.O.) infection with 1×10^2 FFU of ZIKV strain FSS13025 or MR766. Two independent experiments performed in triplicate were averaged and the error bars represent the SEM. The data are expressed as the mean number of spot forming cells (SFC) per 10^6 CD8^+ T cells. The criteria for positivity were net SFC per 10^6 cells of >20, and a stimulation index of >2.0 when compared with the negative control. Dotted lines represent the cutoff value. * Indicates a positive response. All positive peptides were grouped according the corresponding ZIKV protein (c and f); white and black bars are the total IFNγ response of all identified positive peptides from an indicated protein; numbers in parentheses are the number of positive peptides in this protein. ConA denotes Concanavalin A.
# CD44+ CD4+ T cells [2] = assay: ICS, DENV2 S221-infected Ifnar1-/- HLA-DRB1*0101 mice
# Method: Ifnar1^−/− HLA-DRB1*0101 mice were infected intraperitoneally with 2×10^3 FFU of DENV2 strain […] for 7 days. Splenocytes were stimulated in vitro with the indicated ZIKV-derived HLA-DRB1*0101-binding peptides for 6 h. The frequency of CD44^+ CD4^+ T cells producing IFNγ, TNF, or IFNγ plus TNF (A) or IL-2 (B) were detected using the ICS assay. Data represent the mean±s.e.m. of three independent experiments (n=3-4 mice/experiment; total 10 mice). *P<0.05, **P<0.01, ***P<0.001, ****P<0.0001 by two-tailed Mann-Whitney test. Negative and positive refer to cells incubated alone or with PMA/ionomycin, respectively.
# (§1) For the 30-peptide epitope screen, 5-week-old female or male mice were infected retro-orbitally (r.o.) with either 1×10^2 focus-forming units (FFU) of ZIKV SD001 or 2×10^3 FFU of DENV2 S221 in 200 μl of 10% fetal bovine serum in phosphate-buffered saline (FBS/PBS). Seven days after infection, spleens were removed and single-cell splenocyte suspensions were prepared. A total of 1×10^6 splenocytes was plated in each well of a 96-well U-bottom plate and stimulated with individual peptides (20 μg crude peptide per well) for 6 h. One hour into the incubation, brefeldin A (GolgiPlug, BD Biosciences) was added to the cells. Positive and negative controls were splenocytes stimulated with phorbol-12-myristate-13-acetate (PMA, 0.1 μg/ml) and ionomycin (1 μg/ml) or incubated alone, respectively.
# (§2) After incubation of splenocytes with peptides or PMA/ionomycin, cells were harvested, washed, and incubated with Fc Block (CD16/CD32 mAb 2.4G2, BD Biosciences), followed by staining with fixable Live/Dead blue viability stain (Life technologies) and the following antibodies: PerCP-Cy5.5-conjugated anti-CD3 mAb (clone 145-2C11, Tonbo), APC-eFluor780-conjugated anti-CD4 mAb (clone GK1.5, Invitrogen), Brilliant Violet (BV) 785-conjugated anti-CD44 mAb (clone IMT, Biolegend), PE-conjugated anti-CD11a (clone M17/4, Biolegend), BV605-conjugated anti-CD49d (clone 9C10(MFR4.B, Biolegend), PE-conjugated anti-CD25 mAb (clone PC61, Biolegend), PE-conjugated or biotin-conjugated anti-CD185 mAb (CXCR5, clone SPRC15; Invitrogen), BV 605-conjugated anti-[…] mAb (PD1, clone 29F.1A12; Biolegend), and/or BV 421-conjugated streptavidin (#405225, Biolegend). Cells were then fixed and permeabilized using Cytofix/Cytoperm solution (BD Biosciences), followed by staining with FITC-conjugated anti-IFNγ mAb (clone XMG1.2, Tonbo), Alexa Fluor 700- or APC-conjugated anti-TNF mAb (clone MP6-XT22, eBioscience), PE-, BV 421-, or BV 711-conjugated anti-IL-2 mAb (clone JES6-5H4, Biolegend), APC-conjugated anti-IL-4 mAb (clone 11B11, Biolegend), PE-conjugated anti-IL-5 mAb (clone TRFK5, eBioscience), BV510-conjugated anti-IL-17A mAb (clone 17B7, eBioscience), and/or Alexa Fluor 700-conjugated anti-FoxP3 mAb (clone FJK-16S, eBioscience). Data were collected using an LSR Fortessa flow cytometer (BD Biosciences) and analyzed using FlowJo software X 10.0.7 (Tree Star).
# CD44+ CD4+ T cells [3] = assay: ICS, ZIKV SD001-infected Ifnar1-/- HLA-DRB1*0101 mice; settings: for cytokines produced by ZIKV-primed CD4+ T cells on peptide stimulation: ZIKV SD001, day 7
# Method: Ifnar1^−/− HLA-DRB1*0101 mice were infected retro-orbitally with 1×10^2 FFU of ZIKV strain SD001 for 7 days. Splenocytes were stimulated in vitro with the indicated ZIKV-derived HLA-DRB1*0101-binding peptides for 6 h, and the frequency of CD44^+ CD4^+ T cells producing IFNγ, TNF, or IFNγ plus TNF (A), IL-2 (B), and IL-17 (C) were detected using the ICS assay. Data represent the mean±s.e.m. of four independent experiments (n=3-5 mice/experiment; total 16 mice). *P<0.05, **P<0.01, ***P<0.001, ****P<0.0001 by two-tailed Mann-Whitney test. Negative and positive refer to cells incubated alone or with PMA/ionomycin, respectively. […]
# as §1, §2
# CD8+ T cells [4] = assay: IFNγ-ELISPOT of predicted H-2b-binding ZIKV peptides; settings: CD8+ T cells of mice infected with MR766 or FSS13025, day 7; positive: SFC per 10^6 CD8+ T cells ≥20 and stimulation index ≥2
# Method: CD8^+ T cells were isolated by magnetic bead positive selection (Miltenyi Biotec, Germany). A total of 2×10^5 CD8^+ T cells were stimulated with 1×10^5 LPS-blast cells as antigen presenting cells (APCs) and 10 μg of individual ZIKV-derived peptide in 96-well flat-bottom plates (IMMOBILON™-P; Millipore, MA) coated with anti-mouse IFNγ monoclonal antibody (mAb) (clone AN18; Mabtech, Sweden) in triplicate. IFNγ-ELISPOT was performed as previously detailed (Elong Ngono et al., 2016). Positive peptides were those with a number of spot-forming cells (SFC) per 10^6 CD8^+ T cells ≥20 and a stimulation index ≥2 based on the negative control (DMSO). […]
# The following results are with reference to FIG. 3A and FIG. 3B, where five-week-old LysMCre^+IFNAR^fl/fl were infected retro-orbitally with 10^4 FFU of ZIKV MR766 or FSS13025. […] A total of 244 peptides from ZIKV strains predicted to bind H-2Kb and H-2db with high affinity were screened. Two independent experiments for each ZIKV strain (n=5 mice for each experiment) were performed in triplicate per peptide. The data are expressed as the mean of spot forming cells (SFC) per 10^6 CD8^+ T cells, and error bars are represented as SEM. One-way ANOVA was used to compare the mean of each peptide with the control (DMSO) ([…]). […] The dotted line corresponds to the average amount of IFNγ produced by MOCK mice when stimulated with positive ZIKV-derived peptides (0.19% of IFNγ+CD8^+ T cells).
# [5] = 7 days after DENV2 S221, 6 h stimulation
substance,measurement,setting,value
MTERFQEAI [FSS/MR-NS4A14-22],"SFC/10^6 CD8+ T cells, MR766",CD8+ T cells [1],266 SFC/10^6 CD8+ T cells
YAQMWQLLY [FSS/MR-NS5509-517],"SFC/10^6 CD8+ T cells, FSS13025",CD8+ T cells [1],313 SFC/10^6 CD8+ T cells
same,"SFC/10^6 CD8+ T cells, MR766",CD8+ T cells [1],225 SFC/10^6 CD8+ T cells
VTRRGNAYY [FSS-C125-prM8],"SFC/10^6 CD8+ T cells, MR766",CD8+ T cells [1],266 SFC/10^6 CD8+ T cells
NLEYRIMLSVHGSQH [E134-148],% CD4+ CD44+ T cells (DENV) IL-2+,CD44+ CD4+ T cells [2]; [5],0.459%
same,cross-reactive response by DENV2-primed CD4+ T cells,"CD44+ CD4+ T cells [2]; DENV2 S221, day 7",elicited cross-reactive responses
same,cytokines produced by DENV2-primed CD4+ T cells on peptide stimulation,"CD44+ CD4+ T cells [2]; DENV2 S221, day 7",induced only IL-2-producing cells
same,% CD4+ CD44+ T cells (ZIKV) IL-2+,"CD44+ CD4+ T cells [3]; 7 days after ZIKV SD001, 6 h stimulation",0.19%
same,cytokines produced by ZIKV-primed CD4+ T cells on peptide stimulation,CD44+ CD4+ T cells [3],stimulated only IL-2 production
same,"identification as Th1 epitope (IFNγ, TNF, IL-2 ICS)",CD44+ CD4+ T cells [3]; ZIKV-primed CD4+ T cells,Th1 epitopes
LPFVMALGLTAVRLV [NS2A134-198],% CD4+ CD44+ T cells (DENV) TNFα+,CD44+ CD4+ T cells [2]; [5],0.397%
same,cytokines produced by DENV2-primed CD4+ T cells on peptide stimulation,"CD44+ CD4+ T cells [2]; DENV2 S221, day 7",induce TNF production
same,cytokines produced by ZIKV-primed CD4+ T cells on peptide stimulation,CD44+ CD4+ T cells [3],did not elicit a response by ZIKV-primed cells
DVEAWRDRY [FSS/MR-NS123-31],"SFC/10^6 CD8+ T cells, FSS13025",CD8+ T cells [1],583 SFC/10^6 CD8+ T cells
same,"SFC/10^6 CD8+ T cells, MR766",CD8+ T cells [1],260 SFC/10^6 CD8+ T cells
same,immunodominance in IFNγ ELISPOT,"CD8+ T cells [1]; immunodominant: >500 SFCs/10^6 CD8+ T cells, shared by both ZIKV strains",immunodominant
17 (TLGMNKCYI) [compound 17],"Strains (ZIKV strain for which the peptide induced a positive T cell response, IFNγ-ELISPOT)",CD8+ T cells [4],FSS
9 (SSLVNGVVRL) [compound 9],"Strains (ZIKV strain for which the peptide induced a positive T cell response, IFNγ-ELISPOT)",CD8+ T cells [4],MR766
FTDPSSIAA [FSS/MR-NS3272-280],"SFC/10^6 CD8+ T cells, MR766",CD8+ T cells [1],286 SFC/10^6 CD8+ T cells
